Assays:
[1] = test system: NQO1 specific enzyme activity in BEAS-2B cells (marker for NRF2 activation); experiment: BEAS-2B NQO1 MTT Assay; format: cell-based; settings: Homo sapiens, compound incubated 48 hours, read-out: EC50 (NQO1 specific enzyme activity induction)
Method in brief: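 BEAS-2B cells treated with compound for 48 h at 37 °C, then lysed; NQO1 activity in lysates measured kinetically by MTT reduction at A570 over 30 min. pEC50 from 3-parameter fit of ΔOD/min versus log concentration; lysate also taken for Cell Titer Glo.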

[2] = target: T1, full length Keap1 protein / full length NRF2 protein (Homo sapiens, UniProt Q14145); experiment: NRF2-Keap1 TR-FRET Assay; format: binding; settings: 25 nM Keap1-FlagHis and 50 nM biotin-NRF2 added
T1 construct: full length NRF2 protein and full length Keap1 protein (Keap1 exists a dimer) are used; His
Method in brief: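 Full-length Keap1-FlagHis preincubated with compound 2.25 h at 37 °C, then biotin-NRF2 added for 1.25 h at 4 °C, in Tris pH 8.0 with MgCl2, NaCl, BSA, DTT, CHAPS. TR-FRET 665/615 nm ratio normalised to with- and without-protein 1% DMSO controls; pIC50 from four-parameter fit.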

T1 sequence (Q14145 whole entry): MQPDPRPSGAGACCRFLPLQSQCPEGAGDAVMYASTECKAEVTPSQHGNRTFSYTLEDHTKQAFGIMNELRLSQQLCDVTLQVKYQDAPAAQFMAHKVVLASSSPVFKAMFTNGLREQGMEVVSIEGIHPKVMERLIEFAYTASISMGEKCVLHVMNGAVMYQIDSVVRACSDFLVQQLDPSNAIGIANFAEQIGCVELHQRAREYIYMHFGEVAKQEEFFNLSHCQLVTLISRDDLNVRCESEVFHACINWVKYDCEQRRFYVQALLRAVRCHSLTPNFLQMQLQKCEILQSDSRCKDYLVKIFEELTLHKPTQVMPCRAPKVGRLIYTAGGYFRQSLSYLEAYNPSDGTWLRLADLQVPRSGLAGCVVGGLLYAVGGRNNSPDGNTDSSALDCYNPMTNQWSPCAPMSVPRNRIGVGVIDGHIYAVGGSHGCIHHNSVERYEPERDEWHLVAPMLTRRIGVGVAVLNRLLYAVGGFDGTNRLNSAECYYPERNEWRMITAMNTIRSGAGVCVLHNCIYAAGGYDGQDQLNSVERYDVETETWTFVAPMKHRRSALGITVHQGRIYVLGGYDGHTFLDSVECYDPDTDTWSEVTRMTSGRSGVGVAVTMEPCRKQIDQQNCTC

CC(Oc1cccc(-c2cccc(-n3ncc(C(=O)O)c3[C@@H]3C[C@H]3c3cn(C)nn3)n2)c1)C1CCCCC1 (relative stereo) [Example 249, 1-(6-(3-(1-Cyclohexylethoxy)phenyl)pyridin-2-yl)-5-(trans-2-(1-methyl-1H-1,2,3-triazol-4-yl)cyclopropyl)-1H-pyrazole-4-carboxylic Acid]
EC50 [1]: 1 to 10 nM | IC50 [2]: 10 to 100 nM

CCC1Cc2ccccc2CN(Cc2cccc(-c3cccc(-n4ncc(C(=O)O)c4[C@@H]4C[C@H]4c4cn(C)nn4)c3)c2)C1 (relative stereo) [Example 252, 1-(3′-((4-Ethyl-4,5-dihydro-1H-benzo[c]azepin-2(3H)-yl)methyl)-[1,1′-biphenyl]-3-yl)-5-(trans-2-(1-methyl-1H-1,2,3-triazol-4-yl)cyclopropyl)-1H-pyrazole-4-carboxylic Acid]
EC50 [1]: 100 to 1000 nM | IC50 [2]: 100 to 1000 nM

C[C@@H]1CCC[C@H](C)N1C(=O)c1cccc(-c2cccc(-n3ncc(C(=O)O)c3[C@H]3C[C@@H]3c3cn(C)nn3)c2)c1F (single isomer, unassigned) [Example 261]
EC50 [1]: 10 to 100 nM | IC50 [2]: 10 to 100 nM

C[C@@H]1CCC[C@H](C)N1C(=O)c1cccc(-c2cccc(-n3ncc(C(=O)O)c3[C@@H]3C[C@H]3c3cn(C)nn3)c2)c1F (single isomer, unassigned) [Example 262]
EC50 [1]: 10 to 100 nM | IC50 [2]: 10 to 100 nM

CCCC1CCCCN1C(=O)c1cccc(-c2cccc(-n3ncc(C(=O)O)c3C3CC3)c2)c1F (stereo in doubt) [Example 54d, 5-Cyclopropyl-1-{3-[2-fluoro-3-((2R)-2-propylpiperidine-1-carbonyl)phenyl]phenyl}-1H-pyrazole-4-carboxylic Acid]
EC50 [1]: 100 to 1000 nM | IC50 [2]: 1000 to 10000 nM

O=C(O)c1cnn(-c2cccc(-c3cccc(C(=O)N(CC4CC4)CC4CC4)c3F)c2)c1C1CC1 [Example 8, 1-(3-{3-[Bis(cyclopropylmethyl)carbamoyl]-2-fluorophenyl}phenyl)-5-cyclopropyl-1H-pyrazole-4-carboxylic Acid]
EC50 [1]: 100 to 1000 nM | IC50 [2]: 100 to 1000 nM

CC(C)CC1CCCCN1C(=O)c1cccc(-c2cccc(-n3ncc(C(=O)O)c3C3CC3)c2)c1F (stereo not drawn) [Example 28, 5-Cyclopropyl-1-(3-{2-fluoro-3-[2-(2-methylpropyl)piperidine-1-carbonyl]phenyl}phenyl)-1H-pyrazole-4-carboxylic Acid]
EC50 [1]: 100 to 1000 nM | IC50 [2]: 100 to 1000 nM

CC1CCCN(C(=O)c2cccc(-c3cccc(-n4ncc(C(=O)O)c4C4CC4)c3)c2F)CC1 (stereo not drawn) [Example 29, 5-Cyclopropyl-1-{3-[2-fluoro-3-(4-methylazepane-1-carbonyl)phenyl]phenyl}-1H-pyrazole-4-carboxylic Acid]
EC50 [1]: 100 to 1000 nM | IC50 [2]: 100 to 1000 nM

CC1CCC(C)N(C(=O)c2cccc(-c3cccc(-n4ncc(C(=O)O)c4C4CC4)c3)c2F)C1 (stereo not drawn) [Example 30, 5-Cyclopropyl-1-{3-[3-(2,5-dimethylpiperidine-1-carbonyl)-2-fluorophenyl]phenyl}-1H-pyrazole-4-carboxylic Acid]
EC50 [1]: 100 to 1000 nM | IC50 [2]: 1000 to 10000 nM

O=C(O)c1cnn(-c2cccc(-c3cccc(C(=O)N4CCCC5CCCCC54)c3F)c2)c1C1CC1 (stereo not drawn) [Example 31, 5-Cyclopropyl-1-{3-[3-(decahydroquinoline-1-carbonyl)-2-fluorophenyl]phenyl}-1H-pyrazole-4-carboxylic Acid]
EC50 [1]: 100 to 1000 nM | IC50 [2]: 1000 to 10000 nM

O=C(O)c1cnn(-c2cccc(-c3cccc(C(=O)N4CCCCC4C4CCCC4)c3F)c2)c1C1CC1 (stereo not drawn) [Example 33, 1-{3-[3-(2-Cyclopentylpiperidine-1-carbonyl)-2-fluorophenyl]phenyl}-5-cyclopropyl-1H-pyrazole-4-carboxylic Acid]
EC50 [1]: 100 to 1000 nM | IC50 [2]: 100 to 1000 nM

O=C(O)c1cnn(-c2cccc(-c3cccc(C(=O)N4C5CCCC4CCC5)c3F)c2)c1C1CC1 [Example 34, 1-[3-(3-{9-azabicyclo[3.3.1]nonane-9-carbonyl}-2-fluorophenyl)phenyl]-5-cyclopropyl-1H-pyrazole-4-carboxylic Acid]
EC50 [1]: 100 to 1000 nM | IC50 [2]: 100 to 1000 nM

O=C(O)c1cnn(-c2cccc(-c3cccc(C(=O)N4CCCC5(CCCC5)C4)c3F)c2)c1C1CC1 [Example 35, 1-[3-(3-{7-Azaspiro[4.5]decane-7-carbonyl}-2-fluorophenyl)phenyl]-5-cyclopropyl-1H-pyrazole-4-carboxylic Acid]
EC50 [1]: 100 to 1000 nM | IC50 [2]: 100 to 1000 nM

O=C(O)c1cnn(-c2cccc(-c3cccc(C(=O)N4CCCCC4CCC(F)(F)F)c3F)c2)c1C1CC1 (stereo not drawn) [Example 38, 5-Cyclopropyl-1-(3-{2-fluoro-3-[2-(3,3,3-trifluoropropyl)piperidine-1-carbonyl]phenyl}phenyl)-1H-pyrazole-4-carboxylic Acid]
EC50 [1]: 100 to 1000 nM | IC50 [2]: 100 to 1000 nM

CCC[C@@H]1CO[C@@H](C)CN1C(=O)c1cccc(-c2cccc(-n3ncc(C(=O)O)c3C3CC3)c2)c1F [Example 45, 5-cyclopropyl-1-(3-{2-fluoro-3-[(2S,5R)-2-methyl-5-propylmorpholine-4-carbonyl]phenyl}phenyl)-1H-pyrazole-4-carboxylic Acid]
EC50 [1]: 100 to 1000 nM | IC50 [2]: 100 to 1000 nM

CC1CC(C)CN(C(=O)c2cccc(-c3cccc(-n4ncc(C(=O)O)c4C4CC4)c3)c2F)C1 (stereo not drawn) [Example 53, 5-Cyclopropyl-1-[3′-(3,5-dimethyl-piperidine-1-carbonyl)-2′-fluoro-biphenyl-3-yl]-1H-pyrazole-4-carboxylic Acid]
EC50 [1]: 100 to 1000 nM | IC50 [2]: 100 to 1000 nM

CCC[C@@H]1CCCCN1C(=O)c1cccc(-c2cccc(-n3ncc(C(=O)O)c3C3CC3)c2)c1F [Example 54e, 5-Cyclopropyl-1-{3-[2-fluoro-3-((2-S)-2-propylpiperidine-1-carbonyl)phenyl]phenyl}-1H-pyrazole-4-carboxylic Acid]
EC50 [1]: 100 to 1000 nM | IC50 [2]: 1000 to 10000 nM

CCC[C@@H]1CCCCN1C(=O)c1cccc(-c2cccc(-n3ncc(C(=O)O)c3CCc3cn(C)nn3)c2)c1F [Example 55, (R)-1-(2′-Fluoro-3′-(2-propylpiperidine-1-carbonyl)-[1,1′-biphenyl]-3-yl)-5-(2-(1-methyl-1H-1,2,3-triazol-4-yl)ethyl)-1H-pyrazole-4-carboxylic Acid]
EC50 [1]: 1000 to 10000 nM | IC50 [2]: 10 to 100 nM

CC(C)Oc1cccc(-c2cccc(-n3ncc(C(=O)O)c3C3CC3c3cn(C)nn3)c2)c1 (stereo not drawn) [Example 59, 1-(3′-Isopropoxy-[1,1′-biphenyl]-3-yl)-5-(2-(1-methyl-1H-1,2,3-triazol-4-yl)cyclopropyl)-1H-pyrazole-4-carboxylic Acid]
EC50 [1]: 1000 to 10000 nM | IC50 [2]: 100 to 1000 nM

CC1(C)CCc2cnn(-c3cccc(-c4cccc(-n5ncc(C(=O)O)c5C5CC5)c4)c3)c21 [Example 63, 5-Cyclopropyl-1-(3′-(6,6-dimethyl-5,6-dihydrocyclopenta[c]pyrazol-1(4H)-yl)-[1,1′-biphenyl]-3-yl)-1H-pyrazole-4-carboxylic Acid]
EC50 [1]: 100 to 1000 nM | IC50 [2]: 100 to 1000 nM

CC1(C)CCc2cnn(-c3cccc(-c4cccc(-n5ncc(C(=O)O)c5C(F)(F)F)c4)c3)c21 [Example 250, 1-(3′-(6,6-Dimethyl-5,6-dihydrocyclopenta[c]pyrazol-1(4H)-yl)-[1,1′-biphenyl]-3-yl)-5-(trifluoromethyl)-1H-pyrazole-4-carboxylic Acid]
EC50 [1]: 100 to 1000 nM | IC50 [2]: 10000 to 100000 nM

C[C@@H]1CN(Cc2cccc(-c3cccc(-n4ncc(C(=O)O)c4[C@@H]4C[C@H]4c4cn(C)nn4)c3)c2)Cc2ccccc2O1 [Example 253]
EC50 [1]: 100 to 1000 nM | IC50 [2]: 100 to 1000 nM

CCOC[C@@H]1CCCN1C(=O)c1cccc(-c2cccc(-n3ncc(C(=O)O)c3[C@@H]3C[C@H]3c3cn(C)nn3)c2)c1F [Example 267]
EC50 [1]: 100 to 1000 nM | IC50 [2]: 10 to 100 nM

CCOC[C@H]1CCCN1C(=O)c1cccc(-c2cccc(-n3ncc(C(=O)O)c3[C@@H]3C[C@H]3c3cn(C)nn3)c2)c1F [Example 268]
EC50 [1]: 100 to 1000 nM | IC50 [2]: 10 to 100 nM
